Data published in patent US20100280004A1, “SMALL MOLECULE CORRECTORS OF DELTAF508 CFTR TRAFFICKING” (The University of British Columbia and The Royal …, priority 2007, published 2010).

How the values were obtained:
ΔF508 CFTR [1] = target: T1, ΔF508 CFTR (Homo sapiens, UniProt P13569, DEL508-508); assay: Screening protocol: surface expression of 3HA-tagged ΔF508 CFTR in BHK cells (anti-HA immunofluorescence plate assay); assay type: cell-based; design: expressed in transfected cells; host or cells: BHK cells; details: for EC50: concentrations between 100 μM and 1 pM, FIG. 2
Procedure: BHK cells expressing 3HA-tagged ΔF508 CFTR between passages 5-8 were seeded in 96-well plates (Corning half area, black-sided, clear bottom) at 15,000 cells per well and incubated with culture medium for 24 h at 37° C. […] The remaining 16 wells on each plate were used for control conditions. Cells were fixed in a 2% Para-formaldehyde solution, washed with PBS, and blocked with PBS containing 5% fetal bovine serum (FBS) for 1 h at 4° C.
Blocking solution was replaced with 15 μl of primary antibody solution containing 1% FBS and mouse monoclonal anti-HA antibody (1:150 dilution, Sigma) in PBS. The plates were sealed and left at 4° C. overnight. After three washes with 100 μl PBS, cells were incubated for 1 h with 15 μl of secondary antibody solution containing 1% FBS and anti-mouse IgG conjugated with FITC (1:100 dilution, Sigma) in PBS. Cells were again washed three times with 100 μl of PBS and analyzed in a plate reader (Analyst™ HT96.384, Biosystems) (488 nm excitation, 510 nm emission). Hits were defined as those compounds giving fluorescence at least three standard deviations higher than untreated controls. The mean fluorescence of four untreated wells was used as the background signal when calculating deviations of the 80 compound-treated wells. Hits were then cherry-picked into reservoir plates and re-tested in duplicate using the same assay. Compounds that consistently give signals that were three standard deviations above untreated controls and were not intrinsically fluorescent were considered validated and studied further.

F508del-CFTR = target: T2, F508del-CFTR (Homo sapiens, UniProt P13569, DEL508-508); assay: Immunofluorescence/confocal microscopy: cell surface CFTR (overlap with wheat germ agglutinin) in BHK cells expressing F508del-CFTR; assay type: cell-based; details: 10 μM, 24 hours, FIG. 3
T2 construct: expressed in transfected cells; host or cells: BHK cells
Procedure: BHK cells expressing F508del-CFTR were treated with 10 μM of the latonduines for 24 hours and then immunostained for CFTR and imaged by confocal microscopy (photomicrograph data not shown).
Cells were seeded onto 1 cm diameter glass coverslips (5000 per coverslip) and incubated overnight, then treated with compound and fixed in 2% Para formaldehyde. After fixation, cells were blocked using (5% FBS in PBS) for 1 hour at 4° C. The coverslips were then washed in PBS and incubated with primary antibody solution (1% FBS in PBS with 1:200 dilution mouse anti-CFTR antibody (Chemicon) for 2 hours at room temperature (0.05% Tween-20 was added to the blocking solution when staining of intracellular CFTR was required). Coverslips were washed four times in PBS and probed with secondary antibody solution (1% FBS in PBS plus goat anti-mouse Alexa 568 conjugated antibody at 1:1000 dilution) for 1 h at room temperature in the dark. The cells were then washed three times with PBS. The coverslips were then mounted on slides using an antifade mounting solution (Permamount) for confocal microscopy.
Analysis was done using the ImageJ system using 120-150 cells per sample in six fields. […]
The cell surface was identified using wheat germ agglutinin and the amount of cell surface CFTR measured (FIG. 3). […]

[2] = test system: panel of human cancer lines; assay: Cytotoxicity assays against a panel of human cancer lines; assay type: cell-based
panel of protein kinases = assay: Enzyme inhibition against a panel of protein kinases; assay type: biochemical
ΔF508 CFTR [3] = target: T1, ΔF508 CFTR; assay: Immunoblotting analysis of biosynthetic processing of ΔF508-CFTR in BHK cells; assay type: cell-based; design: expressed in transfected cells; host or cells: BHK cells
Procedure: The effects of the latonduines on the biosynthetic processing of ΔF508-CFTR, latonduine treatment was assayed by immunoblotting analysis (FIGS. 4A and B).
Cell lysates were quantitated by Bradford assay (BioRad) and separated by SDS-PAGE (6% polyacrylamide gels) and analyzed by Western blotting. Western blots were blocked using 5% skimmed milk in PBS, then were probed overnight at 4° C. with a primary anti-CFTR antibody at a dilution of 1:1000 monoclonal mouse antibody (Chemicon). The blots were washed four times in PBS before the addition of the secondary HRP-conjugated anti-mouse antibody, at a dilution of 1:5000 (Amersham) for one hour at room temperature. The blots were washed five times in PBS and probed for chemiluminescence (Pierce). All samples were run with equal protein loading as determined using the Bradford assay (Biorad). Densitometry of the immunoblots were performed using the ImageJ program.

ΔF508 CFTR [4] = target: T1, ΔF508 CFTR; assay: Iodide efflux assay in CFBE cells expressing ΔF508-CFTR; assay type: cell-based; design: endogenous in cells; host or cells: CFBE cells (human lung epithelial cells from a CF patient); details: CFBE cells (human lung epithelia of a cystic fibrosis patient); FIG. 5B
Procedure: Experiments were performed by hand or with a robotic liquid handling system (BioRobot 8000, Qiagen, USA) using Qiagen 4.1 software. Cells were cultured in 24-well plates until they reached confluence in order to perform parallel experiments and comparison analysis. After treatment or not with a test compound, the medium of each well was replaced with 1 ml of iodide loading buffer (in mM: 136 NaI, 3 KNO3, 2 Ca(NO3)2, 11 glucose and 20 Hepes pH 7.4) for 1 hour at 37° C. to permit the I− to reach equilibrium. At the beginning of each experiment, the loading buffer was removed by aspiration and cells were washed eight times with efflux buffer (same as loading buffer except that NaI was replaced with 136 mM NaNO3) to remove extracellular I^− in each well. The loss of intracellular I^− was determined by removing the medium with efflux buffer every 1 min for up to 11 min. The first four aliquots were recovered at 1-minute intervals in an empty 24-well plate and used to establish a stable baseline in efflux buffer alone. […] The iodide concentration of each aliquot was determined using an iodide-sensitive electrode (Orion Research Inc., Boston, Mass., USA or Ecomet) and converted to iodide content (i.e. the amount of iodide released during the 1 min interval). […]

T1 sequence (P13569 with tags, fused parts or gaps DEL508-508): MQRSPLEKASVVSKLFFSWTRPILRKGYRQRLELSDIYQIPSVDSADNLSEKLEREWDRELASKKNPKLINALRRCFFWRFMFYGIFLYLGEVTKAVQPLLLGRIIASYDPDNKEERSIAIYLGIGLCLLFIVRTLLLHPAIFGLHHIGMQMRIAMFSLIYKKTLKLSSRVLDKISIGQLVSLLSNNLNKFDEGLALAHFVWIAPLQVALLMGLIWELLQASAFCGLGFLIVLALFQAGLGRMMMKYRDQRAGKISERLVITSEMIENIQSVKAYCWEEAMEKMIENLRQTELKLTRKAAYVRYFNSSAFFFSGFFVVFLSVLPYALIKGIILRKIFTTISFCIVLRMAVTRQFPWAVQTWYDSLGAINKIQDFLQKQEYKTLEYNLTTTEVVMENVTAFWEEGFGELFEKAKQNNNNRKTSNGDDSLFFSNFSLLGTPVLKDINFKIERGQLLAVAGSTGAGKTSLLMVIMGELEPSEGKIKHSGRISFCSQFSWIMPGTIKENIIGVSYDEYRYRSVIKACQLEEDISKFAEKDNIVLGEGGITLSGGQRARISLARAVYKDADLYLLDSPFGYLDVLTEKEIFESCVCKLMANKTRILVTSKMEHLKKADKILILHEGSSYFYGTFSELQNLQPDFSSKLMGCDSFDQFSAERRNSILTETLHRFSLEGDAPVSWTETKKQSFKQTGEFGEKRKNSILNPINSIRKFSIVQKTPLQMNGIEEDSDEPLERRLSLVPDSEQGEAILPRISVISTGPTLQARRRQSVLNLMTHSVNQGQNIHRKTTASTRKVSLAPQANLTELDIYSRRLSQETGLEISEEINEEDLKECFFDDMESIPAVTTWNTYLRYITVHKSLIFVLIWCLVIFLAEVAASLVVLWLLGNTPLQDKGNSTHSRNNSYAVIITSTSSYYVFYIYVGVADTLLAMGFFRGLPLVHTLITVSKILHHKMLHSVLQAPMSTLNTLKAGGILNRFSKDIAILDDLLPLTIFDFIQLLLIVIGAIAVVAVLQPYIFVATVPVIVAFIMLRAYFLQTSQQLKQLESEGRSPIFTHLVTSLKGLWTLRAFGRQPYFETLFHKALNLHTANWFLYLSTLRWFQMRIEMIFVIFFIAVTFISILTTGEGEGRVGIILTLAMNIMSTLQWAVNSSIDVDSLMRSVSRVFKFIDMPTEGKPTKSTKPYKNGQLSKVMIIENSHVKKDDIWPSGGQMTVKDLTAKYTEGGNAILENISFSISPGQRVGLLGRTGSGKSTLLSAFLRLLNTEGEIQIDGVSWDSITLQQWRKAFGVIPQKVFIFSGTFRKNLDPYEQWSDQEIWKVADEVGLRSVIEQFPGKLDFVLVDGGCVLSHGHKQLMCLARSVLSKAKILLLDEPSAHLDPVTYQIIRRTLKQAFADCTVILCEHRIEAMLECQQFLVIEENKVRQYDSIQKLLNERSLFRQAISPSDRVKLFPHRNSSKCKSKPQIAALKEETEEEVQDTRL
T2 sequence (P13569 with tags, fused parts or gaps DEL508-508): as above

Row | SMILES | response in the screening protocol (surface expression of ΔF508 CFTR) (ΔF508 CFTR [1]; 24-hour treatment, 10 μM, FIGS. 1 and 6) | cell surface CFTR, % of the amount of wild-type CFTR plasma membrane signal (F508del-CFTR) [%] | enzyme inhibition (panel of protein kinases) | EC50 (ΔF508 CFTR [1]) [pM] | surface expression, % of that observed in cells expressing wild-type CFTR (ΔF508 CFTR [3]; F508del-CFTR, stated in Example III) | share of F508del-CFTR that was complex-glycosylated (ΔF508 CFTR [3]; cells treated with the compound, densitometry of immunoblot) | cytotoxicity [2] | functional ΔF508-CFTR ion channels, iodide efflux (ΔF508 CFTR [4])
1 | Nc1ncc2c(n1)-c1c([nH]c(Br)c1Br)C(=O)NC2 [isolatonduine] | positive response | – | – | – | – | – | – | –
2 | Nc1ncc2c(n1)CNC(=O)c1[nH]c(Br)c(Br)c1-2 [latonduine A] | – | 29 | inactive | 400 | about 25% | Up to 30% | inactive | –
3 | Nc1nc2c(c(C(=O)O)n1)-c1c([nH]c(Br)c1Br)C(=O)NC2 [latonduine B] | – | – | inactive | – | – | – | inactive | –

Further lines, with some results ahead:

Row | response in the screening protocol (surface expression of ΔF508 CFTR) (ΔF508 CFTR [1]; 24-hour treatment, 10 μM, FIGS. 1 and 6) | cell surface CFTR, % of the amount of wild-type CFTR plasma membrane signal (F508del-CFTR) [%] | enzyme inhibition (panel of protein kinases) | EC50 (ΔF508 CFTR [1]) [pM] | surface expression, % of that observed in cells expressing wild-type CFTR (ΔF508 CFTR [3]; F508del-CFTR, stated in Example III) | share of F508del-CFTR that was complex-glycosylated (ΔF508 CFTR [3]; cells treated with the compound, densitometry of immunoblot) | SMILES | cytotoxicity [2] | functional ΔF508-CFTR ion channels, iodide efflux (ΔF508 CFTR [4])
4 | – | 51 | inactive | 500 | – | – | CCOC(=O)c1nc(N)nc2c1-c1c([nH]c(Br)c1Br)C(=O)NC2 [latonduine B ethyl ester] | inactive | can act as correctors of ΔF508-CFTR giving functional ion channels on the cell surface
5 | – | – | inactive | 25000 | – | – | COC(=O)c1nc(N)nc2c1-c1c([nH]c(Br)c1Br)C(=O)NC2 [latonduine B methyl ester] | inactive | –
